# In patent publication US11610666B2, “Systems and methods of managing treatment of a chronic condition by symptom tracking” (CORCEPT THERAPEUTICS, INC., priority 2014, dated 2023):
# Settings: human, in vivo
# Source text: Treatment of endocrine disorders, such as Cushing's Syndrome, can be particularly difficult to manage due to less predictable patient response to administration of a synthetic steroid, such as mifepristone. Mifepristone is a synthetic steroid that binds progesterone and glucocorticoid receptors and has been employed to treat a number of conditions including meningioma, uterine fibroids, hyperadrenocorticism, metabolic, oncologic, opthamalogic, central nervous system disorders and certain psychiatric illnesses. Examples of such metabolic disorders include diabetes, obesity, antipsychotic induced weight gain, hypertension, and osteoporosis; examples of oncologic illness include various types of cancers, including ovarian cancer and prostate cancer; examples of central nervous system disorders include Alzheimer's Disease, neurodegenerative diseases, post traumatic stress disorder, and alcohol dependence; and examples of opthamalogical conditions include glaucoma and central serous retinopathy. […] For a particular dose of mifepristone, the plasma drug concentration can differ by as much as 800% from one patient to the next. The varied plasma drug concentration can result in some patients not receiving an efficacious dose of mifepristone. For these patients in particular, it is necessary to improve the pharmacokinetics of mifepristone upon administration. […]
structure (smiles),measurement,value
CC#C[C@]1(O)CC[C@H]2[C@@H]3CCC4=CC(=O)CCC4=C3[C@@H](c3ccc(N(C)C)cc3)C[C@@]21C [mifepristone],difference in plasma drug concentration from one patient to the next,≤ 800%
